US8283373B2, “Inhibitors of cytosolic phospholipase A2” (Pfizer Inc., priority 2005, dated 2012)

How the values were obtained:
[1] = molecular target: T1, cPLA2α (Homo sapiens, UniProt P47712); assay: GLU Micelle Assay; assay type: biochemical
T1 sequence (P47712 1-749): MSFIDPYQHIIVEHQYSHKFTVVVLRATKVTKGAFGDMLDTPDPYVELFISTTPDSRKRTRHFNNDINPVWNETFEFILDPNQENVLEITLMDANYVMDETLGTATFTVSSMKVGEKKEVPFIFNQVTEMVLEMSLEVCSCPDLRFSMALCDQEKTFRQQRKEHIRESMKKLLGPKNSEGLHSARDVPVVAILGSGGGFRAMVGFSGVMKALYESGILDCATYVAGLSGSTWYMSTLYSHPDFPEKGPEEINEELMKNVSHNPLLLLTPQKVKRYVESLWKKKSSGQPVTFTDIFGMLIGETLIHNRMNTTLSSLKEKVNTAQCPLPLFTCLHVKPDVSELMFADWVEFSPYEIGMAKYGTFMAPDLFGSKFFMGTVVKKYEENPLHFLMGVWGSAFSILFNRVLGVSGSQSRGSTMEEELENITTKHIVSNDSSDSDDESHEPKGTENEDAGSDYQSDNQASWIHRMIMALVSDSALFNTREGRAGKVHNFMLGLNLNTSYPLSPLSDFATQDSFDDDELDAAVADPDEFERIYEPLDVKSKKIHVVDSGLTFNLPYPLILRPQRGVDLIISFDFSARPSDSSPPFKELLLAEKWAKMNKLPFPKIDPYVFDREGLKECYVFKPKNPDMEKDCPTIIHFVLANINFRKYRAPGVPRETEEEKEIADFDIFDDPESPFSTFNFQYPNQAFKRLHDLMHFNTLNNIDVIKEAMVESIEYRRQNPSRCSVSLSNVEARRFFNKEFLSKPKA
Protocol: The assay was carried in a 96-well format using a fluorescent plate reader with a 355 nm excitation filter and a 460 nm emission filter (Lab Systems Fluoroscan II, Helsinki, Finland). The assay buffer contained 940 μM Triton X-100, 50 mM Hepes pH 7.4, 0.3 mM EDTA, 1 mM CaCl2 and 300 mM KCl. DTPC (1,2-O-tetradecyl-sn-glycero-3-phosphocholine, Avanti) at a final concentration of 120 μM was added the day of the experiment and GLU (7-Hydroxycoumarinyl-γ-linolenate, Biomol Research Lab, Inc.) at a final concentration of 90 μM was added immediately prior to each assay.
Compounds (10 μL) dissolved in DMSO were placed in duplicate wells of a black 96-well plate. Wells corresponding to the positive and negative controls contained DMSO without inhibitors. Just prior to the experiment, 200 μL assay buffer containing 90 μM GLU and 120 μM DTPC was added to all wells in the assay plate. Assay buffer (50 μL) was added to the negative, and 50 μL cPLA2α solution ([…] in assay buffer) was added to all other wells to initiate the reaction. The final concentration of enzyme was 1 μg/ml. The content of each well was mixed gently during the addition of the enzyme, and the plate was rapidly transferred to the fluorescent plate reader. The increase in fluorescence was read every 4 min for 84 min. The slope of the resulting line was determined and the inhibition was calculated using the equation below: Percent Inhibition=[1−(slope with inhibitor−slope negative control)/(slope positive control−slope negative control)]×100 Rat Whole Blood Assay

[2] = tested on: TXB2; assay: Rat Whole Blood Assay (A23187-stimulated TXB2); assay type: cell-based; conditions: Rattus norvegicus; A23187 5 μM
Protocol: Fresh blood was collected in heparinized tubes by cardiac puncture of male Sprague-Dawley rats. Aliquots of blood (0.6 mL) were incubated with either 6 μL solvent (DMSO), or 6 μL of test compounds at various concentrations for 15 minutes at 37° C. This was followed by incubation of the blood with 6 μL of calcium ionophore, A23187 (Sigma C-7522) diluted in DMSO for 10 min at 37° C. The final concentration of A23187 was 5 μM. DMSO (6 μL) was added in the unstimulated controls. The reactions were stopped by mixing 60 μL cold EDTA to give a final concentration of 20 mM. The blood was centrifuged at 6,500 rpm for 10 min on a microcentrifuge to obtain plasma. A 70 μL aliquot of plasma was mixed with 400 μL cold methanol for protein precipitation. After incubation at −80° C. for 30 min, the supernatant was obtained by centrifuging at 6,500 rpm for 10 min, and was assayed for TXB2 according to the manufacturer's procedure (Assay Designs, Inc.'s ELISA kit #900-002).

[3] = tested on: primary cerebellar granule neurons; assay: Oxygen-glucose deprivation (OGD) in cultured cerebellar granule neurons; assay type: cell-based, rat; conditions: for percent cell death (lactate dehydrogenase release), Avg.: OGD 2 hours, control 14, OGD 51
Protocol: Primary cerebellar granule neurons were isolated from P5-8 rat pups. Briefly, cerebelli were collected and pooled in ice-cold phosphate buffer saline (PBS) without Ca^2+ and Mg^2+. The tissue was finely chopped and transferred to an enzymatic dissociation media containing 20 IU/ml papain in Earle's balanced salt solution (Worthington Biochemical, Freehold, N.J.) and incubated for 30 minutes at 37° C. After enzymatic dissociation, the papain solution was aspirated and the tissue mechanically triturated with a fire-polished Pasteur pipette in complete media [Neurobasal Medium with B-27 supplement (Gibco, Grand Island, N.Y.), penicillin/streptomycin, aphidicolin, glutamate, potassium chloride] containing 2,000 IU/ml DNase and 10 mg/ml ovomucoid protease inhibitor. Single-cell suspensions in complete media were plated on pre-coated poly-L-ornithine/laminin 24-well plates (Becton-Dickinson, Bedford, Mass.) at a density of
5.0×10^5 cells/well. Cells were maintained for two weeks prior to experimentation.
Cultures were treated with Compound A at various concentrations, 60 minutes before OGD. Media was removed and replaced with deoxygenated buffer in an anaerobic chamber (80% nitrogen, 10% hydrogen, 10% carbon dioxide gas mixture). Fresh Compound A, Example 34 or Example 41 was added to the cultures and maintained in the anaerobic chamber for 2 hours. At the end of the incubation, fresh media was exchanged and fresh Compound A was added. Cultures were maintained for an additional 24 hours in a normoxic incubator. Cell death was determined by measuring lactate dehydrogenase release into the media 24 hours later (Roche Biochemicals). In the table below, values are shown for the control, OGD, various concentrations of Compound A, and MK801, a NMDA receptor antagonist, which is a positive control.

Compound: O=C(O)c1ccc(CCCc2c(CCNS(=O)(=O)Cc3ccccc3-c3cccc4cccnc34)n(C(c3ccccc3)c3ccccc3)c3ccc(Cl)cc23)cc1 [Example 34, 4-{3-[5-chloro-1-(diphenylmethyl)-2-(2-{[(2-quinolin-8-ylbenzyl)sulfonyl]amino}ethyl)-1H-indol-3-yl]propyl}benzoic acid]
- IC50 [1]: 16 nM
- IC50 [2]: 30 nM
- protection of cultured neurons from OGD-induced cell death [3]: effective in protecting cultured neurons from OGD-induced cell death
- percent cell death (lactate dehydrogenase release), Avg. ([3]; 0.1 μM): 35%
- percent cell death (lactate dehydrogenase release), Avg. ([3]; 0.3 μM): 28%
- percent cell death (lactate dehydrogenase release), Avg. ([3]; 1 μM): 21%
- percent cell death (lactate dehydrogenase release), Avg. ([3]; 3 μM): 18%
